In US10501752B2, “Herbicide tolerant cotton event pDAB4468.19.10.3” (Dow AgroSciences LLC, priority 2012, dated 2019):

How the values were obtained:
Assay type in all cases: in vivo, Gossypium hirsutum
[1] = test system: cotton event pDAB4468.19.10.3; test: Tolerance to triclopyr and fluroxypyr in greenhouse trials (percent visual injury); settings: for % Injury: cotton event, 3 leaf stage, greenhouse
Description: (§1) The tolerance of cotton event pDAB4468.19.10.3 to post-emergence applications of the pyridyloxyacetic acid herbicides, triclopyr and fluroxypyr, was studied in greenhouse trials. Herbicide tolerance was assessed following a single post-emergence application of triclopyr or fluroxypyr. Seed from cotton event pDAB4468.19.10.3 were heat treated in a water bath at 82.5° C. for 1 minute and then planted in metro mix 360 media and grown in a greenhouse. The temperatures in the greenhouse averaged 27° C. and the photoperiod was set at 16 hours of light and eight hours of dark, with maximum light intensity. Plants were allowed to grow until the 3 leaf stage of development and a non-randomized study was conducted with three replications and three treatments for each herbicide. Plants were sprayed in a track sprayer calibrated to deliver 187 L/ha of the commercial formulations of triclopyr (Garlon 4TM, Dow AgroSciences, Indianapolis, Ind.) and fluroxypyr ([…], Dow AgroSciences, Indianapolis, Ind.). A non-transformed Coker 310 variety of cotton was used as a negative control.

[2] = test system: non-transformed Coker 310 variety of cotton; test: Triclopyr and fluroxypyr greenhouse trials, negative control plants (percent visual injury); settings: 3 leaf stage
Description: as §1

[3] = test system: cotton event pDAB4468.19.10.3 (aad-12); test: Tolerance to butanoic acids of triclopyr and fluroxypyr in greenhouse trials (% injury); settings: 2-3 leaf stage
Description: (§2) Herbicide tolerance was assessed following a single post-emergence application of the two molecules. Seed from cotton event pDAB4468.19.10.3 were heat treated in a water bath at 82.5° C. for 1 minute and then planted in metro mix 360 media and grown in a greenhouse. The temperatures in the greenhouse averaged 27° C. and the photoperiod was set at 16 hours of light and eight hours of dark, with maximum light intensity. Plants were allowed to grow until the 2-3 leaf stage of development and a non-randomized study was conducted with four replications and three treatments for each herbicide. […] In addition, a crop oil concentrate was added to a final concentration of 1.25%. Plants were sprayed in a track sprayer calibrated to deliver 187 L/ha of the formulated technical material. A non-transformed Coker 310 variety of cotton was used as a negative control.

[4] = test system: non-transformed Coker 310 variety of cotton (WT); test: Butanoic acids of triclopyr and fluroxypyr greenhouse trials, negative control plants (% injury); settings: 2-3 leaf stage
Description: as §2

Nc1c(Cl)c(F)nc(OCC(=O)O)c1Cl [Fluroxypyr, fluroxypyr]
% Injury ([1]; 70 g ae/ha, 3 DAA): 0.5 e % | % Injury ([1]; 70 g ae/ha, 11 DAA): 2.3 b % | % Injury ([1]; 140 g ae/ha, 3 DAA): 0.5 e % | % Injury ([1]; 140 g ae/ha, 11 DAA): 2.5 b % | % Injury ([1]; 280 g ae/ha, 3 DAA): 6.5 d % | % Injury ([1]; 280 g ae/ha, 11 DAA): 6.3 a % | herbicide level to which the event provides tolerance ([1]; by 3 DAA): up to 280 g ae/ha | % Injury ([2]; 70 g ae/ha, 3 DAA): 11.3 c % | % Injury ([2]; 70 g ae/ha, 11 DAA): 43.8 ab % | % Injury ([2]; 140 g ae/ha, 3 DAA): 27.3 b % | % Injury ([2]; 140 g ae/ha, 11 DAA): 36.3 b % | % Injury ([2]; 280 g ae/ha, 3 DAA): 33.3 a % | % Injury ([2]; 280 g ae/ha, 11 DAA): 43.8 ab % | % Injury ([3]; 140 g ai/ha, 1 DAA): 21.5a % | % Injury ([3]; 140 g ai/ha, 3 DAA): 8.8c % | % Injury ([3]; 140 g ai/ha, 6 DAA): 7.8b % | % Injury ([3]; 140 g ai/ha, 6 HAA): 19a % | % Injury ([3]; 140 g ai/ha, 14 DAA): 21.3ab % | % Injury ([3]; 280 g ai/ha, 1 DAA): 19.8a % | % Injury ([3]; 280 g ai/ha, 3 DAA): 15.3b % | % Injury ([3]; 280 g ai/ha, 6 DAA): 11.5a % | % Injury ([3]; 280 g ai/ha, 6 HAA): 14a % | % Injury ([3]; 280 g ai/ha, 14 DAA): 17.5b % | % Injury ([3]; 560 g ai/ha, 1 DAA): 21.5a % | % Injury ([3]; 560 g ai/ha, 3 DAA): 21.3a % | % Injury ([3]; 560 g ai/ha, 6 DAA): 14.3a % | % Injury ([3]; 560 g ai/ha, 6 HAA): 17a % | % Injury ([3]; 560 g ai/ha, 14 DAA): 25a % | % Injury ([4]; 140 g ai/ha, 1 DAA): 24.3a % | % Injury ([4]; 140 g ai/ha, 3 DAA): 32.5bc % | % Injury ([4]; 140 g ai/ha, 6 DAA): 38.8a % | % Injury ([4]; 140 g ai/ha, 6 HAA): 23.8a % | % Injury ([4]; 140 g ai/ha, 14 DAA): 60ab % | % Injury ([4]; 280 g ai/ha, 1 DAA): 25a % | % Injury ([4]; 280 g ai/ha, 3 DAA): 37.5ab % | % Injury ([4]; 280 g ai/ha, 6 DAA): 38.8a % | % Injury ([4]; 280 g ai/ha, 6 HAA): 22.5ab % | % Injury ([4]; 280 g ai/ha, 14 DAA): 65ab % | % Injury ([4]; 560 g ai/ha, 1 DAA): 23.5a % | % Injury ([4]; 560 g ai/ha, 3 DAA): 38.8a % | % Injury ([4]; 560 g ai/ha, 6 DAA): 41.3a % | % Injury ([4]; 560 g ai/ha, 6 HAA): 22.5ab % | % Injury ([4]; 560 g ai/ha, 14 DAA): 67.5a %

Nc1c(Cl)c(F)nc(OCCCC(=O)O)c1Cl [Fluroxypyr-b, fluroxypyr-B]
% Injury ([3]; 140 g ai/ha, 1 DAA): 3b % | % Injury ([3]; 140 g ai/ha, 3 DAA): 2d % | % Injury ([3]; 140 g ai/ha, 6 DAA): 2c % | % Injury ([3]; 140 g ai/ha, 6 HAA): 6.5b % | % Injury ([3]; 140 g ai/ha, 14 DAA): 0c % | % Injury ([3]; 280 g ai/ha, 1 DAA): 2b % | % Injury ([3]; 280 g ai/ha, 3 DAA): 2.3d % | % Injury ([3]; 280 g ai/ha, 6 DAA): 2.8c % | % Injury ([3]; 280 g ai/ha, 6 HAA): 7.8b % | % Injury ([3]; 280 g ai/ha, 14 DAA): 0c % | % Injury ([3]; 560 g ai/ha, 1 DAA): 3.5b % | % Injury ([3]; 560 g ai/ha, 3 DAA): 2d % | % Injury ([3]; 560 g ai/ha, 6 DAA): 2.8c % | % Injury ([3]; 560 g ai/ha, 6 HAA): 8b % | % Injury ([3]; 560 g ai/ha, 14 DAA): 2c % | % Injury ([4]; 140 g ai/ha, 1 DAA): 21.8a % | % Injury ([4]; 140 g ai/ha, 3 DAA): 32.5bc % | % Injury ([4]; 140 g ai/ha, 6 DAA): 37.5a % | % Injury ([4]; 140 g ai/ha, 6 HAA): 17.8b % | % Injury ([4]; 140 g ai/ha, 14 DAA): 56.3b % | % Injury ([4]; 280 g ai/ha, 1 DAA): 24.3a % | % Injury ([4]; 280 g ai/ha, 3 DAA): 33.8bc % | % Injury ([4]; 280 g ai/ha, 6 DAA): 41.3a % | % Injury ([4]; 280 g ai/ha, 6 HAA): 21.3ab % | % Injury ([4]; 280 g ai/ha, 14 DAA): 62.5ab % | % Injury ([4]; 560 g ai/ha, 1 DAA): 22.3a % | % Injury ([4]; 560 g ai/ha, 3 DAA): 31.3c % | % Injury ([4]; 560 g ai/ha, 6 DAA): 41.3a % | % Injury ([4]; 560 g ai/ha, 6 HAA): 20ab % | % Injury ([4]; 560 g ai/ha, 14 DAA): 61.3ab %

O=C(O)CCCOc1nc(Cl)c(Cl)cc1Cl [Triclopyr-b, triclopyr-B]
% Injury ([3]; 140 g ai/ha, 1 DAA): 0.5b % | % Injury ([3]; 140 g ai/ha, 3 DAA): 1a % | % Injury ([3]; 140 g ai/ha, 6 DAA): 1.5a % | % Injury ([3]; 140 g ai/ha, 6 HAA): 3.8c % | % Injury ([3]; 140 g ai/ha, 14 DAA): 0a % | % Injury ([3]; 280 g ai/ha, 1 DAA): 2b % | % Injury ([3]; 280 g ai/ha, 3 DAA): 2a % | % Injury ([3]; 280 g ai/ha, 6 DAA): 2.8a % | % Injury ([3]; 280 g ai/ha, 6 HAA): 5.3c % | % Injury ([3]; 280 g ai/ha, 14 DAA): 0a % | % Injury ([3]; 560 g ai/ha, 1 DAA): 2.8b % | % Injury ([3]; 560 g ai/ha, 3 DAA): 3.5a % | % Injury ([3]; 560 g ai/ha, 6 DAA): 4.3a % | % Injury ([3]; 560 g ai/ha, 6 HAA): 8.5b % | % Injury ([3]; 560 g ai/ha, 14 DAA): 0a % | % Injury ([4]; 140 g ai/ha, 1 DAA): 20.5a % | % Injury ([4]; 140 g ai/ha, 3 DAA): 26.7a % | % Injury ([4]; 140 g ai/ha, 6 DAA): 25b % | % Injury ([4]; 140 g ai/ha, 6 HAA): 12.8b % | % Injury ([4]; 140 g ai/ha, 14 DAA): 47.5b % | % Injury ([4]; 280 g ai/ha, 1 DAA): 21.5a % | % Injury ([4]; 280 g ai/ha, 3 DAA): 27.5a % | % Injury ([4]; 280 g ai/ha, 6 DAA): 33.8a % | % Injury ([4]; 280 g ai/ha, 6 HAA): 7.3b % | % Injury ([4]; 280 g ai/ha, 14 DAA): 57.5ab % | % Injury ([4]; 560 g ai/ha, 1 DAA): 18.8a % | % Injury ([4]; 560 g ai/ha, 3 DAA): 33.8a % | % Injury ([4]; 560 g ai/ha, 6 DAA): 35a % | % Injury ([4]; 560 g ai/ha, 6 HAA): 8.3b % | % Injury ([4]; 560 g ai/ha, 14 DAA): 51.3ab %

O=C(O)COc1nc(Cl)c(Cl)cc1Cl [Triclopyr, triclopyr]
% Injury ([1]; 140 g ae/ha, 3 DAA): 13.0 c % | % Injury ([1]; 140 g ae/ha, 11 DAA): 3.5 b % | % Injury ([1]; 280 g ae/ha, 3 DAA): 16.5 b % | % Injury ([1]; 280 g ae/ha, 11 DAA): 3.3 b % | % Injury ([1]; 560 g ae/ha, 3 DAA): 19.5 a % | % Injury ([1]; 560 g ae/ha, 11 DAA): 3.3 b % | % Injury ([2]; 140 g ae/ha, 3 DAA): 33.8 a % | % Injury ([2]; 140 g ae/ha, 11 DAA): 36.3 b % | % Injury ([2]; 280 g ae/ha, 3 DAA): 33.8 a % | % Injury ([2]; 280 g ae/ha, 11 DAA): 40.0 ab % | % Injury ([2]; 560 g ae/ha, 3 DAA): 36.3 a % | % Injury ([2]; 560 g ae/ha, 11 DAA): 48.8 a % | % Injury ([3]; 140 g ai/ha, 1 DAA): 8.8a % | % Injury ([3]; 140 g ai/ha, 3 DAA): 2a % | % Injury ([3]; 140 g ai/ha, 6 DAA): 2.8a % | % Injury ([3]; 140 g ai/ha, 6 HAA): 19.5a % | % Injury ([3]; 140 g ai/ha, 14 DAA): 0a % | % Injury ([3]; 280 g ai/ha, 1 DAA): 8a % | % Injury ([3]; 280 g ai/ha, 3 DAA): 1.8a % | % Injury ([3]; 280 g ai/ha, 6 DAA): 0.5a % | % Injury ([3]; 280 g ai/ha, 6 HAA): 15.8a % | % Injury ([3]; 280 g ai/ha, 14 DAA): 0a % | % Injury ([3]; 560 g ai/ha, 1 DAA): 9.5a % | % Injury ([3]; 560 g ai/ha, 3 DAA): 3.5a % | % Injury ([3]; 560 g ai/ha, 6 DAA): 3.5a % | % Injury ([3]; 560 g ai/ha, 6 HAA): 17.3a % | % Injury ([3]; 560 g ai/ha, 14 DAA): 0a % | % Injury ([4]; 140 g ai/ha, 1 DAA): 24.3a % | % Injury ([4]; 140 g ai/ha, 3 DAA): 30a % | % Injury ([4]; 140 g ai/ha, 6 DAA): 33.8a % | % Injury ([4]; 140 g ai/ha, 6 HAA): 20.8a % | % Injury ([4]; 140 g ai/ha, 14 DAA): 56.3ab % | % Injury ([4]; 280 g ai/ha, 1 DAA): 23a % | % Injury ([4]; 280 g ai/ha, 3 DAA): 32.5a % | % Injury ([4]; 280 g ai/ha, 6 DAA): 33.8a % | % Injury ([4]; 280 g ai/ha, 6 HAA): 20.3a % | % Injury ([4]; 280 g ai/ha, 14 DAA): 60ab % | % Injury ([4]; 560 g ai/ha, 1 DAA): 24.5a % | % Injury ([4]; 560 g ai/ha, 3 DAA): 32.5a % | % Injury ([4]; 560 g ai/ha, 6 DAA): 35a % | % Injury ([4]; 560 g ai/ha, 6 HAA): 21.8a % | % Injury ([4]; 560 g ai/ha, 14 DAA): 67.5a %
